Data: patent publication US9827312B2, “Method for carrying therapeutic substances into cells” (MAGFORCE AG, priority 2005, dated 2017)

Tests used:
Conditions in all cases: procedure of example 2
[1] = system: glioblastoma human cell line RUSIRS1; assay: Increase in the activity of cytostatics with nanoparticles (Table 1), RUSIRS1; assay type: cell-based
Experimental: (§1) The experiments in vitro were carried out with the cell lines BT20 (breast carcinoma) and WiDr (colon carcinoma). The tumor cells were taken from tumor tissue of a patient and cultivated as described in DE 199 12 798 C1. 2×10^6 cells, respectively, were prepared in a 75 cm^3 cell culture bottle with 25 ml of cell culture medium (RPMI+10% FBS+1.2 ml of pyruvate for WiDr cells, or respectively BME+10% FBS+pyruvate+5 ml of non-essential amino acids+5 ml glutamine for BT20 cells) for testing the efficacy of the cefamandole/nanoparticle mixture. 136 μl of magnetic fluid MFL AS M01 (iron oxide nanoparticle coated with polycondensed N-(2-aminoethyl)-3-(trimethoxysilyl)propylamine, manufacturer: MagForce Nanotechnologies GmbH, Berlin, Germany) (cFe=2 mol/l) and 390 μl of cefamandole solution (stock solution 1 mg/ml in 0.9% NaCl) were added to said cell suspension.
(§2) Corresponding to the experiment procedure according to example 2, the following […] were tested in vitro with the active ingredients listed in table 1: a) glioblastoma human cell line RUSIRS 1; b) breast carcinoma cell lines BT20; c) colon carcinoma cell line WiDR; d) bronchial carcinoma cells NSCLC, e) rectal carcinoma cells and f) prostate carcinoma cell line DU 145.
(§3) In all cases, an increased activity of the cytostatic could be observed. The increase in activity is indicated in parentheses after the respective cytostatic, wherein (+) means an increase of about 5% to 80% and (++) means an increase of 80% to 500%.

[2] = system: colon carcinoma cell line WiDr; assay: Increase in the activity of cytostatics with nanoparticles (Table 1), WiDr; assay type: cell-based, human
Experimental: as §1, §2, §3

[3] = system: prostate carcinoma cell line DU 145; assay: Increase in the activity of cytostatics with nanoparticles (Table 1), DU 145; assay type: cell-based
Experimental: as §1, §2, §3

[4] = system: bronchial carcinoma cells NSCLC; assay: Increase in the activity of cytostatics with nanoparticles (Table 1), NSCLC; assay type: cell-based
Experimental: as §1, §2, §3

rectal carcinoma cells = assay: Increase in the activity of cytostatics with nanoparticles (Table 1), rectal carcinoma; assay type: cell-based
Experimental: as §1, §2, §3

neuroglioma cell line H4 = assay: Increase in the activity of cytostatics with nanoparticles (Table 1), H4; assay type: cell-based
Experimental: as §1, §2, §3

[5] = system: breast carcinoma cell lines BT20; assay: Increase in the activity of cytostatics with nanoparticles (Table 1), BT20; assay type: cell-based, human
Experimental: as §1, §2, §3

## Nc1nc2c(ncn2COCCO)c(=O)[nH]1 [acyclovir]
[1]
  increase in the activity of cytostatics: (+) ((+) means an increase of about 5% to 80%)
[2]
  increase in the activity of cytostatics: (+) ((+) means an increase of about 5% to 80%)
[3]
  increase in the activity of cytostatics: (+) ((+) means an increase of about 5% to 80%)
[4]
  increase in the activity of cytostatics: (+) ((+) means an increase of about 5% to 80%)
Rectal carcinoma cells
  increase in the activity of cytostatics: (++) ((++) means an increase of 80% to 500%)
Neuroglioma cell line H4
  increase in the activity of cytostatics: (+) ((+) means an increase of about 5% to 80%)
[5]
  increase in the activity of cytostatics: (+) ((+) means an increase of about 5% to 80%)

## CC[C@@H]1/C=C(\C)C[C@H](C)C[C@H](OC)[C@H]2O[C@@](O)(C(=O)C(=O)N3CCCC[C@H]3C(=O)O[C@H](/C(C)=C/[C@@H]3CC[C@@H](O)[C@H](OC)C3)[C@H](C)[C@@H](O)CC1=O)[C@H](C)C[C@@H]2OC [ascomycin]
[1]
  increase in the activity of cytostatics: (++) ((++) means an increase of 80% to 500%)
[2]
  increase in the activity of cytostatics: (+) ((+) means an increase of about 5% to 80%)
[3]
  increase in the activity of cytostatics: (+) ((+) means an increase of about 5% to 80%)
[4]
  increase in the activity of cytostatics: (+) ((+) means an increase of about 5% to 80%)
Rectal carcinoma cells
  increase in the activity of cytostatics: (+) ((+) means an increase of about 5% to 80%)
[5]
  increase in the activity of cytostatics: (+) ((+) means an increase of about 5% to 80%)

## CN1CCCC(n2nc(Cc3ccc(Cl)cc3)c3ccccc3c2=O)CC1 (centres unmarked) [azelastine]
[1]
  increase in the activity of cytostatics: (+) ((+) means an increase of about 5% to 80%)
[3]
  increase in the activity of cytostatics: (+) ((+) means an increase of about 5% to 80%)
Rectal carcinoma cells
  increase in the activity of cytostatics: (+) ((+) means an increase of about 5% to 80%)
Neuroglioma cell line H4
  increase in the activity of cytostatics: (+) ((+) means an increase of about 5% to 80%)
[5]
  increase in the activity of cytostatics: (+) ((+) means an increase of about 5% to 80%)

## Cn1c(CCCC(=O)O)nc2cc(N(CCCl)CCCl)ccc21 [bendamustine]
[1]
  increase in the activity of cytostatics: (+) ((+) means an increase of about 5% to 80%)
[3]
  increase in the activity of cytostatics: (+) ((+) means an increase of about 5% to 80%)
[4]
  increase in the activity of cytostatics: (+) ((+) means an increase of about 5% to 80%)
[5]
  increase in the activity of cytostatics: (+) ((+) means an increase of about 5% to 80%)

## CS(=O)(=O)OCCCCOS(C)(=O)=O [busulfan]
[1]
  increase in the activity of cytostatics: (+) ((+) means an increase of about 5% to 80%)
[2]
  increase in the activity of cytostatics: (+) ((+) means an increase of about 5% to 80%)
[3]
  increase in the activity of cytostatics: (+) ((+) means an increase of about 5% to 80%)
[4]
  increase in the activity of cytostatics: (++) ((++) means an increase of 80% to 500%)
Neuroglioma cell line H4
  increase in the activity of cytostatics: (+) ((+) means an increase of about 5% to 80%)

## O=NN(CCCl)C(=O)NCCCl [carmustine]
[1]
  increase in the activity of cytostatics: (+) ((+) means an increase of about 5% to 80%)
[2]
  increase in the activity of cytostatics: (+) ((+) means an increase of about 5% to 80%)
[3]
  increase in the activity of cytostatics: (+) ((+) means an increase of about 5% to 80%)
[4]
  increase in the activity of cytostatics: (++) ((++) means an increase of 80% to 500%)
Rectal carcinoma cells
  increase in the activity of cytostatics: (+) ((+) means an increase of about 5% to 80%)
Neuroglioma cell line H4
  increase in the activity of cytostatics: (+) ((+) means an increase of about 5% to 80%)
[5]
  increase in the activity of cytostatics: (+) ((+) means an increase of about 5% to 80%)

## COCc1c(C(C)C)nc(C(C)C)c(/C=C/[C@@H](O)C[C@@H](O)CC(=O)O)c1-c1ccc(F)cc1 [cerivastatin]
[1]
  increase in the activity of cytostatics: (+) ((+) means an increase of about 5% to 80%)
[2]
  increase in the activity of cytostatics: (+) ((+) means an increase of about 5% to 80%)
[3]
  increase in the activity of cytostatics: (+) ((+) means an increase of about 5% to 80%)
[4]
  increase in the activity of cytostatics: (+) ((+) means an increase of about 5% to 80%)
Rectal carcinoma cells
  increase in the activity of cytostatics: (++) ((++) means an increase of 80% to 500%)
Neuroglioma cell line H4
  increase in the activity of cytostatics: (+) ((+) means an increase of about 5% to 80%)
[5]
  increase in the activity of cytostatics: (+) ((+) means an increase of about 5% to 80%)

## O=C(O)CCCc1ccc(N(CCCl)CCCl)cc1 [chlorambucil]
[1]
  increase in the activity of cytostatics: (+) ((+) means an increase of about 5% to 80%)
[2]
  increase in the activity of cytostatics: (++) ((++) means an increase of 80% to 500%)
[3]
  increase in the activity of cytostatics: (+) ((+) means an increase of about 5% to 80%)
[4]
  increase in the activity of cytostatics: (+) ((+) means an increase of about 5% to 80%)
Rectal carcinoma cells
  increase in the activity of cytostatics: (+) ((+) means an increase of about 5% to 80%)
Neuroglioma cell line H4
  increase in the activity of cytostatics: (++) ((++) means an increase of 80% to 500%)
[5]
  increase in the activity of cytostatics: (+) ((+) means an increase of about 5% to 80%)

## N.N.[Cl][Pt][Cl] [cisplatin]
[1]
  increase in the activity of cytostatics: (+) ((+) means an increase of about 5% to 80%)
[2]
  increase in the activity of cytostatics: (+) ((+) means an increase of about 5% to 80%)
[3]
  increase in the activity of cytostatics: (+) ((+) means an increase of about 5% to 80%)
[4]
  increase in the activity of cytostatics: (++) ((++) means an increase of 80% to 500%)
Rectal carcinoma cells
  increase in the activity of cytostatics: (+) ((+) means an increase of about 5% to 80%)
Neuroglioma cell line H4
  increase in the activity of cytostatics: (++) ((++) means an increase of 80% to 500%)
[5]
  increase in the activity of cytostatics: (+) ((+) means an increase of about 5% to 80%)

## Nc1nc(Cl)nc2c1ncn2[C@H]1C[C@H](O)[C@@H](CO)O1 [cladribine]
[1]
  increase in the activity of cytostatics: (+) ((+) means an increase of about 5% to 80%)
[2]
  increase in the activity of cytostatics: (++) ((++) means an increase of 80% to 500%)
[3]
  increase in the activity of cytostatics: (+) ((+) means an increase of about 5% to 80%)
[4]
  increase in the activity of cytostatics: (++) ((++) means an increase of 80% to 500%)
Neuroglioma cell line H4
  increase in the activity of cytostatics: (+) ((+) means an increase of about 5% to 80%)
[5]
  increase in the activity of cytostatics: (+) ((+) means an increase of about 5% to 80%)

## O=C(O)Cc1ccccc1Nc1c(Cl)cccc1Cl [diclofenac]
[1]
  increase in the activity of cytostatics: (+) ((+) means an increase of about 5% to 80%)
[2]
  increase in the activity of cytostatics: (+) ((+) means an increase of about 5% to 80%)
[3]
  increase in the activity of cytostatics: (+) ((+) means an increase of about 5% to 80%)
[4]
  increase in the activity of cytostatics: (+) ((+) means an increase of about 5% to 80%)
Rectal carcinoma cells
  increase in the activity of cytostatics: (++) ((++) means an increase of 80% to 500%)
Neuroglioma cell line H4
  increase in the activity of cytostatics: (+) ((+) means an increase of about 5% to 80%)

## Nc1nc(O)c2ncn(COC(CO)CO)c2n1 [ganciclovir]
[1]
  increase in the activity of cytostatics: (++) ((++) means an increase of 80% to 500%)
[2]
  increase in the activity of cytostatics: (+) ((+) means an increase of about 5% to 80%)
[3]
  increase in the activity of cytostatics: (+) ((+) means an increase of about 5% to 80%)
[4]
  increase in the activity of cytostatics: (+) ((+) means an increase of about 5% to 80%)
Rectal carcinoma cells
  increase in the activity of cytostatics: (+) ((+) means an increase of about 5% to 80%)
Neuroglioma cell line H4
  increase in the activity of cytostatics: (+) ((+) means an increase of about 5% to 80%)
[5]
  increase in the activity of cytostatics: (+) ((+) means an increase of about 5% to 80%)

## COC(=O)C1=C(C)NC(C)=C(C(=O)OC)C1c1ccccc1[N+](=O)[O-] [nifedipine]
[1]
  increase in the activity of cytostatics: (+) ((+) means an increase of about 5% to 80%)
[2]
  increase in the activity of cytostatics: (+) ((+) means an increase of about 5% to 80%)
[3]
  increase in the activity of cytostatics: (+) ((+) means an increase of about 5% to 80%)
[4]
  increase in the activity of cytostatics: (+) ((+) means an increase of about 5% to 80%)
Neuroglioma cell line H4
  increase in the activity of cytostatics: (+) ((+) means an increase of about 5% to 80%)
[5]
  increase in the activity of cytostatics: (+) ((+) means an increase of about 5% to 80%)

## C=CC[C@@H]1/C=C(\C)C[C@H](C)C[C@H](OC)[C@H]2O[C@@](O)(C(=O)C(=O)N3CCCC[C@H]3C(=O)O[C@H](/C(C)=C/[C@@H]3CC[C@@H](O)[C@H](OC)C3)[C@H](C)[C@@H](O)CC1=O)[C@H](C)C[C@@H]2OC [tacrolimus]
[1]
  increase in the activity of cytostatics: (+) ((+) means an increase of about 5% to 80%)
[3]
  increase in the activity of cytostatics: (+) ((+) means an increase of about 5% to 80%)
[4]
  increase in the activity of cytostatics: (+) ((+) means an increase of about 5% to 80%)
Rectal carcinoma cells
  increase in the activity of cytostatics: (+) ((+) means an increase of about 5% to 80%)
Neuroglioma cell line H4
  increase in the activity of cytostatics: (++) ((++) means an increase of 80% to 500%)
[5]
  increase in the activity of cytostatics: (+) ((+) means an increase of about 5% to 80%)

## CC/C(=C(\c1ccccc1)c1ccc(OCCN(C)C)cc1)c1ccccc1 [tamoxifen]
[1]
  increase in the activity of cytostatics: (+) ((+) means an increase of about 5% to 80%)
[2]
  increase in the activity of cytostatics: (++) ((++) means an increase of 80% to 500%)
[3]
  increase in the activity of cytostatics: (+) ((+) means an increase of about 5% to 80%)
[4]
  increase in the activity of cytostatics: (+) ((+) means an increase of about 5% to 80%)
Neuroglioma cell line H4
  increase in the activity of cytostatics: (+) ((+) means an increase of about 5% to 80%)
[5]
  increase in the activity of cytostatics: (+) ((+) means an increase of about 5% to 80%)
